These results are taken from patent publication US7041698B2, “Hepatitis C virus inhibitors” (Bristol-Myers Squibb Company, priority 2002, dated 2006).

Structures are written as SMILES.

Assay [1] relates to HCV replicon in Huh7 cells. The experiment in a line: HCV replicon cell-based assay. The arrangement: species or system HCV strain 1B. As to conditions: Hepatitis C virus, Huh-7, 96 h, HCV replicon, 4 days, read-out: EC50 range. From the text:
HCV Replicon Cell-based Assay
An HCV replicon whole cell system was established as described by Lohmann V, Komer F, Koch J, Herian U, Theilmann L, Bartenschlager R., Science 285(5424):110–3 (1999). This system enabled us to evaluate the effects of our HCV Protease compounds on HCV RNA replication. Briefly, using the HCV strain 1B sequence described in the Lohmann paper (Assession number:AJ238799), an HCV cDNA was generated encoding the 5′ internal ribosome entry site (IRES), the neomycin resistance gene, the EMCV (encephalomyocarditis viurs)-IRES and the HCV nonstructural proteins, NS3-NS5B, and 3′ non-translated region (NTR). In vitro transcripts of the cDNA were transfected into the human hepatoma cell line, Huh7. […] Resulting cell lines were characterized for positive and negative strand RNA production and protein production over time.
Huh7 cells, constitutively expressing the HCV replicon, were grown in Dulbecco's Modified Eagle Media (DMEM) containing 10% Fetal calf serum (FCS) and 1 mg/ml G418 (Gibco-BRL). Cells were seeded the night before (1.5×10^4 cells/well) in 96-well tissue-culture sterile plates. Compound and no compound controls were prepared in DMEM containing 4% FCS, 1:100 Penicillin/Streptomysin, 1:100 L-glutamine and 5% DMSO in the dilution plate (0.5% DMSO final concentration in the assay). Compound/DMSO mixes were added to the cells and incubated for 4 days at 37° C. After 4 days, plates were rinsed thoroughly with Phosphate-Buffered Saline (PBS) (3 times 150 μl). The cells were lysed with 25 μl of a lysis assay reagent containing the FRET peptide (RET S1, as described for the in vitro enzyme assay). The lysis assay reagent was made from 5× cell Luciferase cell culture lysis reagent (Promega #E153A) diluted to 1× with distilled water, NaCl added to 150 mM final, the FRET peptide diluted to 10 μM final from a 2 mM stock in 100% DMSO. The plate was then placed into the Cytofluor 4000 instrument which had been set to 340 nm excitation/490 emission, automatic mode for 21 cycles and the plate read in a kinetic mode. EC50 determinations were carried out as described for the IC50 determinations.
As a secondary assay, EC50 determinations from the replicon FRET assay were confirmed in a quantitative RNA assay. Cells were lyzed using the Rneasy kit (Qiagen). Purified total RNA was normalized using RiboGreen (Jones L J, Yue S T, Cheung C Y, Singer V L, Anal. Chem., 265(2):368–74 (1998)) and relative quantitation of HCV RNA expression assessed using the Taqman procedure (Kolykhalov A A, Mihalik K, Feinstone S M, Rice C M, Journal of Virology 74, 2046–2051 (2000)) and the Platinum Quantitative RT-PCR Thermoscript One-Step kit (Invitrogen cat # 11731-015). Briefly, RNA made to a volume of 5 μl (<1 ng) was added to a 20 μl Ready-Mix containing the following: 1.25× Thermoscript reaction mix (containing Magnesium Sulfate and 2-deoxynucleoside 5′-triphosphates (dNTPs)), 3 mM dNTPs, 200 nM forward primer (sequence: 5′-[…]-3′), 600 nM reverse primer (5′-[…]-3′), 100 nM probe (5′-6-FAM-[…]-BHQ-1-3′)(FAM: Fluorescein-aminohexyl amidite; BHQ: Black Hole Quencher), 1 μM Rbx reference dye (Invitrogen cat # 12223-012) and Thermoscript Plus Platinum Taq polymerase mixture. All primers were designed with ABI Prism 7700 software and obtained from Biosearch Technologies, Novato, Calif. Samples containing known concentrations of HCV RNA transcript were run as standards. Using the following cycling protocol (50° C., 30 min; 95° C., 5 min; 40 cycles of 95° C., 15 sec, 60° C., 1 min), HCV RNA expression was quantitated as described in the Perkin Elmer manual using the ABI Prism 7700 Sequence Detector.
The luciferase reporter assay was also used to confirm compound potency in the replicon. Utilization of a replicon luciferase reporter assay was first described by Krieger et al (Krieger N, Lohmann V, and Bartenschlager R, J. Virol. 75(10):4614–4624 (2001)). […]
On the technique in general: In antiviral work, replicon cells carry a viral genome segment that copies itself.

The target in assay [2] is T1, HCV NS3/4A protease complex (UniProt P27958, C1454S/C1711G, species not given).
T1 construct: fused on or other part: Three-lysine solubilising tail at the C-terminus of NS4A
Kind of assay: Recombinant HCV NS3/4A protease complex FRET peptide assay (strain not stated). As to conditions: HCV NS3/4A protease enzyme assay, read-out: IC50 range. Format: biochemical. From the text: Recombinant HCV NS3/4A Protease Complex FRET Peptide Assay
The purpose of this in vitro assay was to measure the inhibition of HCV NS3 protease complexes, derived from the BMS, H77C or J416S strains, as described below, by compounds of the present invention. This assay provides an indication of how effective compounds of the present invention would be in inhibiting HCV proteolytic activity.
Serum from an HCV-infected patient was obtained from Dr. T. Wright, San Francisco Hospital. An engineered full-length cDNA (compliment deoxyribonucleic acid) template of the HCV genome (BMS strain) was constructed from DNA fragments obtained by reverse transcription-PCR (RT-PCR) of serum RNA (ribonucleic acid) and using primers selected on the basis of homology between other genotype 1a strains. From the determination of the entire genome sequence, a genotype 1a was assigned to the HCV isolate according to the classification of Simmonds et al. (See P Simmonds, K A Rose, S Graham, S W Chan, F McOmish, B C Dow, E A Follett, P L Yap and H Marsden, J. Clin. Microbiol., 31(6), 1493–1503 (1993)). […] The infectious clones, H77C (1a genotype) and J4L6S (1b genotype) were obtained from R. Purcell (NIH) and the sequences are published in Genbank (AAB67036, see Yanagi, M., Purcell, R. H., Emerson, S. U. and Bukh, J. Proc. Natl. Acad. Sci. U.S.A. 94(16),8738–8743 (1997); AF054247, see Yanagi, M., St Claire, M., Shapiro, M., Emerson, S. U., Purcell, R. H. and Bukh, J, Virology 244 (1), 161–172. (1998)).
The BMS, H77C and J4L6S strains were used for production of recombinant NS3/4A protease complexes. DNA encoding the recombinant HCV NS3/4A protease complex (amino acids 1027 to 1711) for these strains were manipulated as described by P. Gallinari et al. (see Gallinari P, Paolini C, Brennan D, Nardi C, Steinkuhler C, De Francesco R. Biochemistry. 38(17):5620–32, (1999)). Briefly, a three-lysine solubilizing tail was added at the 3′-end of the NS4A coding region. The cysteine in the P1 position of the NS4A-NS4B cleavage site (amino acid 1711) was changed to a glycine to avoid the proteolytic cleavage of the lysine tag. Furthermore, a cysteine to serine mutation was introduced by PCR at amino acid position 1454 to prevent the autolytic cleavage in the NS3 helicase domain. The variant DNA fragment was cloned in the pET21b bacterial expression vector (Novagen) and the NS3/4A complex was expressed in Escherichia. coli strain BL21 (DE3) (Invitrogen) following the protocol described by P. Gallinari et al. (see Gallinari P, Brennan D, Nardi C, Brunetti M, Tomei L, Steinkuhler C, De Francesco R., J. Virol. 72(8):6758–69 (1998)) with modifications. Briefly, NS3/4A expression was induced with 0.5 mM Isopropyl β-D-1-thiogalactopyranoside (IPTG) for 22 hr at 20° C. A typical fermentation (10L) yielded approximately 80 g of wet cell paste. The cells were resuspended in lysis buffer (10 mL/g) consisting of 25 mM N-(2-Hydroxyethyl)Piperazine-N′-(2-Ethane Sulfonic acid) (HEPES), pH7.5, 20% glycerol, 500 mM Sodium Chloride (NaCl), 0.5% Triton-X100, 1 ug/ml lysozyme, 5 mM Magnesium Chloride (MgCl2), lug/ml Dnasel, 5 mM β-Mercaptoethanol (βME), Protease inhibitor—Ethylenediamine Tetraacetic acid (EDTA) free (Roche), homogenized and incubated for 20 mins at 4° C. The homogenate was sonicated and clarified by ultra-centrifugation at 235000 g for 1 hr at 4° C. Imidazole was added to the supernatant to a final concentration of 15 mM and the pH adjusted to 8.0. The crude protein extract was loaded on a Nickel-Nitrilotriacetic acid (Ni-NTA) column pre-equilibrated with buffer B (25 mM HEPES, pH 8.0, 20% glycerol, 500 mM NaCl, 0.5% Triton-X100, 15 mM imidazole, 5 mM βME). The sample was loaded at a flow rate of 1 mL/min. The column was washed with 15 column volumes of buffer C (same as buffer B except with 0.2% Triton-X100). The protein was eluted with 5 column volumes of buffer D (same as buffer C except with 200 mM Imidazole). […]

Regarding `C=CC1C[C@]1(NC(=O)[C@@H]1C[C@@H](OC(=O)Nc2ccc3c(c2)OCO3)CN1C(=O)[C@@H](NC(=O)OC(C)(C)C)C(C)(C)C)C(=O)NS(=O)(=O)C1CC1` (stereo partly drawn) [Compound 10, BocNH-P3(t-BuGly)-P2(Hyp(O—CO(NH-Benzo[1,3]dioxol-5-yl)))-P1(1R,2S VinylAcca)—CONHSO2Cyclopropane], the EC50 in assay [1] was over 10000 nM. In assay [2], the IC50 was 100 to 1000 nM.

With `C=CC1C[C@]1(NC(=O)[C@@H]1C[C@@H](OC(=O)NCc2ccc(OC)cc2)CN1C(=O)[C@@H](NC(=O)OC(C)(C)C)C(C)(C)C)C(=O)NS(=O)(=O)C1CC1` (stereo partly drawn) [Compound 11, BocNH-P3(t-BuGly)-P2(Hyp(O—CO(NH—(4-methoxy-benzyl))))-P1(1R,2S VinylAcca)—CONHSO2Cyclopropane], the EC50 in assay [1] lay within 1000 to 10000 nM. The IC50 in assay [2] is 100 to 1000 nM.

For `C=CC1C[C@]1(NC(=O)[C@@H]1C[C@@H](OC(=O)N[C@H](C(=O)OC)[C@@H](C)CC)CN1C(=O)[C@@H](NC(=O)OC(C)(C)C)C(C)(C)C)C(=O)NS(=O)(=O)C1CC1` (stereo partly drawn) [Compound 12, BocNH-P3(t-BuGly)-P2(Hyp(O—CO(NH-2-[(2S,3S)-3-methylvaleric acid methyl ester])))-P1(1R,2S VinylAcca)—CONHSO2Cyclopropane], the EC50 in assay [1] was over 10000 nM. The IC50 in assay [2] fell in the range of 1000 to 10000 nM.

Turning to `C=CC1C[C@]1(NC(=O)[C@@H]1C[C@@H](OC(=O)N2CCCC2)CN1C(=O)[C@@H](NC(=O)OC(C)(C)C)C(C)(C)C)C(=O)NS(=O)(=O)C1CC1` (stereo partly drawn) [Compound 13, BocNH-P3(t-BuGly)-P2(Hyp(O—CO(N,N-(pyrrolidino))))-P1(1R,2S VinylAcca)—CONHSO2Cyclopropane], in assay [1], the EC50 was over 10000 nM. In assay [2], the IC50 is 100 to 1000 nM.

`C=CC1C[C@]1(NC(=O)[C@@H]1C[C@@H](OC(=O)N2CCCCC2)CN1C(=O)[C@@H](NC(=O)OC(C)(C)C)C(C)(C)C)C(=O)NS(=O)(=O)C1CC1` (stereo partly drawn) [Compound 14, BocNH-P3(t-BuGly)-P2(Hyp(O—CO(N,N-(piperdino))))-P1(1R,2S VinylAcca)—CONHSO2Cyclopropane]: in assay [1], the EC50 was 1000 to 10000 nM. For the same compound, the half-inhibitory concentration (IC50) in assay [2] lay in the range of 100 to 1000 nM.

With `C=CC1C[C@]1(NC(=O)[C@@H]1C[C@@H](OC(=O)Nc2cc([N+](=O)[O-])ccc2C)CN1C(=O)[C@@H](NC(=O)OC(C)(C)C)C(C)(C)C)C(=O)NS(=O)(=O)C1CC1` (stereo partly drawn) [Compound 15, BocNH-P3(t-BuGly)-P2(Hyp(O—CO(NH—(2-methyl-5-nitro-phenyl))))-P1(1R,2S VinylAcca)—CONHSO2Cyclopropane], in assay [1], the EC50 fell in the range of 1000 to 10000 nM. For the same compound, the IC50 in assay [2] was under 100 nM.

`C=CC1C[C@]1(NC(=O)[C@@H]1C[C@@H](OC(=O)Nc2ccc(F)c(F)c2F)CN1C(=O)[C@@H](NC(=O)OC(C)(C)C)C(C)(C)C)C(=O)NS(=O)(=O)C1CC1` (stereo partly drawn) [Compound 16, BocNH-P3(t-BuGly)-P2(Hyp(O—CO(NH—(2,3,4-trifluoro-phenyl))))-P1(1R,2S VinylAcca)—CONHSO2Cyclopropane]: the concentration giving a half-maximal response (EC50) in assay [1] was 1000 to 10000 nM. The IC50 in assay [2] lay in the range of 100 to 1000 nM.

As to `C=CC1C[C@]1(NC(=O)[C@@H]1C[C@@H](OC(=O)Nc2ccccc2C(C)(C)C)CN1C(=O)[C@@H](NC(=O)OC(C)(C)C)C(C)(C)C)C(=O)NS(=O)(=O)C1CC1` (stereo partly drawn) [Compound 17, BocNH-P3(t-BuGly)-P2(Hyp(O—CO(NH—(2-tert-butyl-phenyl))))-P1(1R,2S VinylAcca)—CONHSO2Cyclopropane], the EC50 in assay [1] fell in the range of 1000 to 10000 nM. Besides, the IC50 in assay [2] was in the range of 100 to 1000 nM.

Regarding `C=CC1C[C@]1(NC(=O)[C@@H]1C[C@@H](OC(=O)Nc2cc(Cl)nc(Cl)c2)CN1C(=O)[C@@H](NC(=O)OC(C)(C)C)C(C)(C)C)C(=O)NS(=O)(=O)C1CC1` (stereo partly drawn) [Compound 18, BocNH-P3(t-BuGly)-P2(Hyp(O—CO(NH—(2,6-Dichloro-pyridin-4-yl))))-P1(1R,2S VinylAcca)—CONHSO2Cyclopropane], the EC50 in assay [1] is over 10000 nM. Moreover, the half-inhibitory concentration (IC50) in assay [2] is 100 to 1000 nM.

One may read the EC50 as the midpoint of the concentration-response curve. A word on the IC50: it is the concentration needed to halve the response being measured.
